{
  "source": "ChEMBL document CHEMBL1132466",
  "about": "“Asymmetric synthesis of 9-alkyl-2-benzyl-6,7-benzomorphans: characterization as novel sigma receptor ligands” (J Med Chem, 1999)",
  "assay": "Affinity against Sigma opioid receptor type 1 using [3H](+)-pentazocine in guinea pig brain membranes",
  "data": [
    {"smiles": "C[C@@H]1[C@@H]2Cc3ccc(O)cc3[C@@]1(C)CCN2Cc1ccccc1", "values": [
      {"measurement": "Ki", "value": 670, "unit": "pM"}
    ]}
  ]
}
